Results: patent publication US20240343740A1, “MACROCYCLIC GLUCAGON-LIKE PEPTIDE 1 RECEPTOR AGONISTS” (Eli Lilly and Company, priority 2021, published 2024)
Read-outs that look alike come from different tables or passages of the source.

Experiments:
[1] = cc_pd bond, 14-membered ring, 110.0 °C, 15.0 h
human GLP-1R [2] = molecular target: T1, human GLP-1R (Homo sapiens, UniProt P43220); assay: Human GLP-1 Receptor HEK293 cell cAMP assay, 104 fmol/mg GLP-1R expression density; type: cell-based; set-up: expressed in transfected cells; host or cells: HEK293 clonal cell line; settings: HEK293 cell line with 104 fmol/mg expression density of GLP-1R; for EC50: geometric mean, read-out: EC50 nM (SEM, n), intracellular cAMP response, relative EC50; for Emax: percent of maximal response to GLP-1(7-36)NH2, arithmetic mean, read-out: Emax % (SEM, n), intracellular cAMP response
In short: (§1)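 HEK293 clonal lines expressing human GLP-1R, 20-point compound curves, 30 min at 37° C in DMEM with 0.1% casein, 250 μM IBMX, 0.5% DMSO. cAMP by HTRF, converted via standard curve to % of maximal human GLP-1(7-36)NH2 response; relative EC50 and Emax from four-parameter logistic fit.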
Target sequence in this assay (P43220 24-463): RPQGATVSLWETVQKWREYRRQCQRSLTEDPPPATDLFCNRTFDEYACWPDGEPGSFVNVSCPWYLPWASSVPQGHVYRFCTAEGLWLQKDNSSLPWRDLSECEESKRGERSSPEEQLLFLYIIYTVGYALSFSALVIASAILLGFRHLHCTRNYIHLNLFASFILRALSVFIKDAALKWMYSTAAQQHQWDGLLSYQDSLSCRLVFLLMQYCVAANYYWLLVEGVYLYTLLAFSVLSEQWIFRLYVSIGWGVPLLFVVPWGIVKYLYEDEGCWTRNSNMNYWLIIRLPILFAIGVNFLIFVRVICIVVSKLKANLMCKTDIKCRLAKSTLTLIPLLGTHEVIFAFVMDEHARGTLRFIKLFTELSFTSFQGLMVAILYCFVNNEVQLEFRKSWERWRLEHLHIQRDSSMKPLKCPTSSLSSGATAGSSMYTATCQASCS

human GLP-1R [3] = molecular target: T1, human GLP-1R; assay: GLP-1R CHO cell β-arrestin recruitment assay (PathHunter); type: cell-based; set-up: host or cells: CHO-K1; settings: for EC50: CHO-K1 cells expressing Pro-Link-tagged Human GLP-1R and enzyme-acceptor-tagged β-arrestin-2, read-out: EC50 nM (SEM, n), hGLP1R induced β-Arrestin-2 recruitment relative EC50; for Emax: CHO-K1 cells, % stimulation with DMSO and GLP-1(7-36) as minimum and maximum controls, read-out: Emax % (SEM, n), hGLP1R induced β-Arrestin-2 recruitment
Procedure: GLP-1R CHO Cell β-Arrestin Recruitment Assay
Activated G-protein coupled receptors can interact with the β-arrestin family of signaling proteins. The potency of compounds for GLP-1R induced arrestin recruitment is determined using the PathHunter Enzyme Fragment Complementation approach substantially as described (von Degenfeld et al., FASEB J., 2007 (14):3819-26 and Hamdouchi et al., J. Med Chem., 2016 59(24):10891-10916). CHO-K1 cells expressing Pro-Link-tagged Human GLP-1R and enzyme-acceptor-tagged β-arrestin-2 may be obtained from DiscoveRx and prepared as assay-ready frozen cells. Test compounds are solubilized in DMSO and serial dilutions are performed using the Echo acoustic dispenser (LabCyte). Assay media is the PathHunter Cell Assay Buffer (DiscoveRx) containing 0.1% w/v hydrolyzed Casein (Sigma). 100 nL of test compound solution is dispensed into 10 μL of assay media in a 384 well plate and then 10 μL of cells in assay media are added to give 5000 cells per well. Plates are incubated for 90 min in a 37° C./5% CO2 incubator and 10 μL of PathHunter detection reagent is added (DiscoveRx) and plates are incubated at RT for 60 min. Luminescence signal is measured. Compound concentration-response curves fit to a four-parameter logistic model to calculate potency as an EC50 and percent top (Emax). Data normalization to % stimulation is performed using DMSO and GLP-1(7-36) as minimum and maximum controls (Campbell et al, Assay Guidance Manual 2017).
Target sequence in this assay (P43220 24-463): as above
Target sequence in this assay (P32121 whole entry partner): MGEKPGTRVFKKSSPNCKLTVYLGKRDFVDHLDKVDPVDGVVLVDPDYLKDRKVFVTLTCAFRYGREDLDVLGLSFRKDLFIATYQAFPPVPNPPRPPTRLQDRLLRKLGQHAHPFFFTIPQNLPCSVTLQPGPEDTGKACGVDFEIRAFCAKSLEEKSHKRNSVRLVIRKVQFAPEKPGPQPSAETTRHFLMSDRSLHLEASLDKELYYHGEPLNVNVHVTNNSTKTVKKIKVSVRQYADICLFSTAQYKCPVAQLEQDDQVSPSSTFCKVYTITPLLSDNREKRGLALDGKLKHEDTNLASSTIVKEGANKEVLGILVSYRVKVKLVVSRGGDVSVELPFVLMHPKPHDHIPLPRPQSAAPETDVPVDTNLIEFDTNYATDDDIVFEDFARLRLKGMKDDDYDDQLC

human GLP-1R [4] = molecular target: T1, human GLP-1R; assay: Human GLP-1 Receptor HEK293 cell cAMP assay, 581 fmol/mg GLP-1R expression density; type: cell-based; set-up: expressed in transfected cells; host or cells: HEK293 clonal cell line; settings: HEK293 cell line with 581 fmol/mg expression density of GLP-1R; for EC50: geometric mean, read-out: EC50 nM (SEM, n), intracellular cAMP response, relative EC50; for Emax: percent of maximal response to GLP-1(7-36)NH2, arithmetic mean, read-out: Emax % (SEM, n), intracellular cAMP response
In short: as §1
Target sequence in this assay (P43220 24-463): as the sequence (P43220 24-463) above

SMILES	EC50 (human GLP-1R [2])	Emax (human GLP-1R [2])	EC50 (human GLP-1R [3])	Emax (human GLP-1R [3])	EC50 (human GLP-1R [4])	Emax (human GLP-1R [4])	ring closure, yield after HPLC ([1]; from CCOC(=O)Cc1cc(F)c(Br)cc1COCCc1cc(C#N)ccc1COc1ccc(F)c(Br)n1, XPhos Pd G3/Me3SnSnMe3/CsF, 1,4-dioxane, 11.4 mM)	ring closure, yield after HPLC ([1]; from FC(F)(F)c1cc(CCOCc2cc(Br)ccc2Cl)c(COc2cccc(Br)n2)cn1, XPhos Pd G3)
CCOC(=O)Cc1cc(F)c2cc1COCCc1cc(C#N)ccc1COc1ccc(F)c-2n1							29%	
FC(F)(F)c1cc2c(cn1)COc1cccc(n1)-c1ccc(Cl)c(c1)COCC2								14%
N#Cc1ccc2c(c1)CCCOc1cc(c(F)cc1Cc1nc3c(F)cc(C(=O)O)cc3n1C[C@@H]1CCO1)-c1cccc(n1)OC2 [Example 2, (S)-2-((5^4-Cyano-1^6-fluoro-3,9-dioxa-2(2,6)-pyridina-1(1,3),5(1,2)-dibenzenacyclononaphane-1^4-yl)methyl)-4-fluoro-1-(oxetan-2-ylmethyl)-1H-benzo[d]imidazole-6-carboxylic acid]	17.5 nM	72%	133 nM	52.7%	8.05 nM	98%		
O=C(O)c1ccc2nc(Cc3ccc4cc3OCCCc3cc(Cl)ccc3COc3cccc-4n3)n(C[C@@H]3CCO3)c2c1 [Example 3, (S)-2-((5^4-Chloro-3,9-dioxa-2(2,6)-pyridina-1(1,3),5(1,2)-dibenzenacyclononaphane-1^4-yl)methyl)-1-(oxetan-2-ylmethyl)-1H-benzo[d]imidazole-6-carboxylic acid]	132 nM	84%	320 nM	34%	44.1 nM	102%		

More lines, main results first:

EC50 (human GLP-1R [2])	Emax (human GLP-1R [2])	EC50 (human GLP-1R [3])	Emax (human GLP-1R [3])	EC50 (human GLP-1R [4])	Emax (human GLP-1R [4])	SMILES	ring closure, yield after HPLC ([1]; from CCOC(=O)Cc1cc(F)c(Br)cc1COCCc1cc(C#N)ccc1COc1ccc(F)c(Br)n1, XPhos Pd G3/Me3SnSnMe3/CsF, 1,4-dioxane, 11.4 mM)	ring closure, yield after HPLC ([1]; from FC(F)(F)c1cc(CCOCc2cc(Br)ccc2Cl)c(COc2cccc(Br)n2)cn1, XPhos Pd G3)
59.7 nM	71%	213 nM	42.9%	19.8 nM	95%	N#Cc1ccc2c(c1)CCCOc1cc(c(F)cc1Cc1nc3ccc(C(=O)O)cc3n1C[C@@H]1CCO1)-c1cccc(n1)OC2 [Example 1, (S)-2-((5^4-Cyano-1^6-fluoro-3,9-dioxa-2(2,6)-pyridina-1(1,3),5(1,2)-dibenzenacyclononaphane-1^4-yl)methyl)-1-(oxetan-2-ylmethyl)-1H-benzo[d]imidazole-6-carboxylic acid]		
66.3 nM	46.4%	> 49500 nM	9.47%	20.2 nM	81.8%	COc1cc(-c2nnn[nH]2)cc2c1nc(Cc1ccc3cc1OCCCc1cc(C#N)ccc1COc1cccc-3n1)n2C[C@@H]1CCO1 [Example 12, (S)-1^4-((4-Methoxy-1-(oxetan-2-ylmethyl)-6-(1H-tetrazol-5-yl)-1H-benzo[d]imidazol-2-yl)methyl)-3,9-dioxa-2(2,6)-pyridina-1(1,3),5(1,2)-dibenzenacyclononaphane-5^4-carbonitrile]		
